Reference: patent US4618612A (Medosan Industrie Biochimiche Riunite S.p.A., priority 1983, dated 1986)

Legend:
[1] = system: rat platelet-rich plasma (ADP-induced platelet aggregation); test: Anti-platelet aggregation activity in vitro (Born's method), rat platelet-rich plasma, ADP-induced; format: cell-based
Protocol: Preparations (A), (B), (C), (D), (E) and (F) were administered "in vivo" orally and/or parenterally in 0.5% carboxymethylcellulose suspensions in physiological saline at neutral pH. When tested "in vitro", they were finely dispersed in neutral pH physiological saline.
This was studied "in vitro" following Born's method (Born G. W. R., Nature, 194, 937 (1962)) and inducing platelet aggregation with ADP.
Platelet-rich plasma was obtained by centrifugation for 10 minutes at 2,000 rpm of 9 parts rat blood to 1 part 3.13% sodium citrate solution. In performing the aggregation test, 0.2 ml of platelet rich plasm was mixed with a 0.9% NaCl solution to which the test substance was added to a final volume of 0.6 ml; the resulting mixture was incubated at 27° C. for 3 minutes. After inducement with ADP, aggregation was measured continuously with an Elvi 840 Aggregometer (Elvi Logos-Milan) to follow its course. The anti-aggregant effects were determined from the difference in the light transmission of the sample with respect to an ADP control.
Table I reports the platelet aggregation inhibition using different doses of the test compounds at a constant ADP concentration.

carragenin-induced edema = test: Carragenin-induced edema test (Winter); format: in vivo, rat
Protocol: This effect was measured with an experimental model reproducing acute inflammation in rats: the carragenin-induced edema test according to C.

in vivo [2] = conditions: mouse, mice
in vivo [3] = conditions: rat, rats
[4] = system: human platelet aggregation (PRP); test: Human platelet aggregation in vitro induced by ADP, adrenalin, collagen or arachidonate; format: cell-based
Protocol: Blood samples (20 ml) were obtained by venal puncture of the antecubital fossa using plastic syringes containing trisodium citrate as anticoagulant (final concentration 0.19% w/v). Platelet rich plasma (PRP) was harvested after slow centrifugation at 170 g for 12 min. and 0.2 ml aliquots were dispensed into plastic cuvettes and stored at room temperature throughout the experiment.
Aliquots of 0.2 ml PRP from each sample were treated with ADP, adrenalin, collagen or arachidonate, until the threshold concentrations of these aggregating agents had been reached. The threshold concentration is defined as the minimum whcih will produce irreversible aggregation. Once established, the threshold concentration was used to challenge test samples of each of the 2 test compounds or vehicle (DMSO) which had been incubated for 1 min. at 37 C. in the holding cell of the agregometer, prior to addition of the aggregating agent.
This was reported as the final concentration in the PRP after addition of 2.5-10 ul of test substance.

[5] = ADP 2 μmol/l, dose 1 V/ml (Table II)
[6] = ADP 5 μmol/l, dose 1 V/ml (Table II)

Row | Compound | % Inhibition [1, 5] [%] | % Inhibition [1, 6] [%] | % Edema Inhibition (carragenin-induced edema; I.P., 10 mg/kg, 3 h) | % Edema Inhibition (carragenin-induced edema; I.P., 10 mg/kg, 6 h) | % Edema Inhibition (carragenin-induced edema; I.P., 10 mg/kg, 24 h) | % Edema Inhibition (carragenin-induced edema; I.P., 50 mg/kg, 3 h) | % Edema Inhibition (carragenin-induced edema; I.P., 50 mg/kg, 6 h) | % Edema Inhibition (carragenin-induced edema; I.P., 50 mg/kg, 24 h) | % Edema Inhibition (carragenin-induced edema; I.P., 100 mg/kg, 3 h) | % Edema Inhibition (carragenin-induced edema; I.P., 100 mg/kg, 6 h) | % Edema Inhibition (carragenin-induced edema; I.P., 100 mg/kg, 24 h) | % Edema Inhibition (carragenin-induced edema; OS, 10 mg/kg, 3 h) | % Edema Inhibition (carragenin-induced edema; OS, 10 mg/kg, 6 h) | % Edema Inhibition (carragenin-induced edema; OS, 10 mg/kg, 24 h) | % Edema Inhibition (carragenin-induced edema; OS, 50 mg/kg, 3 h) | % Edema Inhibition (carragenin-induced edema; OS, 50 mg/kg, 6 h) | % Edema Inhibition (carragenin-induced edema; OS, 50 mg/kg, 24 h) | % Edema Inhibition (carragenin-induced edema; OS, 100 mg/kg, 3 h) | % Edema Inhibition (carragenin-induced edema; OS, 100 mg/kg, 6 h) | % Edema Inhibition (carragenin-induced edema; OS, 100 mg/kg, 24 h) | further results
1 | Cc1ccc(C(=O)c2ccc(CC(=O)OC(Cn3cnc4c3c(=O)n(C)c(=O)n4C)Cn3cnc4c3c(=O)n(C)c(=O)n4C)n2C)cc1 [(F)] | 32 | 23 | 43,8% | 34,8% | 0,0% | 56,0% | 33,0% | 0,0% | 78,6% | 65,6% | 15,8% | 23,9% | 24,0% | 0,0% | 47,0% | 46,0% | 0,0% | 66,0% | 66,0% | 12,0% | LD50 (in vivo [2]; ip, I.P.): 1240 mg/kg; LD50 (in vivo [2]; po, OS): 1680 mg/kg; LD50 (in vivo [3]; ip, I.P.): 1050 mg/kg; LD50 (in vivo [3]; po, OS): 1500 mg/kg
2 | Cn1c(=O)c2c(ncn2CCCOC(=O)Cc2ccc(-n3cccc3)cc2)n(C)c1=O [(D)] | 31 | 24 | 31,8% | 32,7% | 1,0% | 50,1% | 45,9% | 8,6% | 67,0% | 65,4% | 9,6% | 39,0% | 32,0% | 0,0% | 53,1% | 52,0% | 11,6% | 66,8% | 64,1% | 16,7% | LD50 (in vivo [2]; ip, I.P.): 780 mg/kg; LD50 (in vivo [2]; po, OS): 1100 mg/kg; LD50 (in vivo [3]; ip, I.P.): 675 mg/kg; LD50 (in vivo [3]; po, OS): 1000 mg/kg
3 | 1-Methyl-5-p-methylbenzoylpyrrol-2-acetate of 7-(3-oxypropyl)theophylline [(C)] | 36 | 27 | 38,0% | 36,2% | 0,0% | 53,1% | 50,0% | 2,0% | 69,5% | 62,0% | 10,0% | 40,2% | 34,0% | 0,0% | 59,0% | 57,0% | 22,2% | 70,0% | 66,1% | 31,0% | % Inhibition ([1]; ADP 7.08 μmol/l, dose 1 /ml (Table I)): 22%; % Inhibition ([1]; ADP 7.08 μmol/l, dose 2,5 /ml (Table I)): 75%; % Inhibition ([1]; ADP 7.08 μmol/l, dose 5 /ml (Table I)): 90%; Minimum Effective Concentration (Final in PRP) ([4]; ADP, volunteer 1 (person delta for (A), person for (C))): 100 µM; Minimum Effective Concentration (Final in PRP) ([4]; ADP, volunteer 2 (donor gamma)): 100 µM; Minimum Effective Concentration (Final in PRP) ([4]; ADP, volunteer 3 (person alpha for (A), person for (C))): 250 µM; Minimum Effective Concentration (Final in PRP) ([4]; Adrenalin, volunteer 1): 100 µM; Minimum Effective Concentration (Final in PRP) ([4]; Adrenalin, volunteer 2 (donor gamma)): 0.25 µM; Minimum Effective Concentration (Final in PRP) ([4]; Adrenalin, volunteer 3): 100 µM; Minimum Effective Concentration (Final in PRP) ([4]; Arachidonate, volunteer 1): 400 µM; Minimum Effective Concentration (Final in PRP) ([4]; Arachidonate, volunteer 2 (donor gamma)): 10 µM; Minimum Effective Concentration (Final in PRP) ([4]; Arachidonate, volunteer 3): 10 µM; Minimum Effective Concentration (Final in PRP) ([4]; Collagen, volunteer 1): 350 µM; Minimum Effective Concentration (Final in PRP) ([4]; Collagen, volunteer 2 (donor gamma)): 250 µM; Minimum Effective Concentration (Final in PRP) ([4]; Collagen, volunteer 3): 100 µM
4 | Cc1ccc(C(=O)c2ccc(CC(=O)NCC(=O)OCCn3cnc4c3c(=O)n(C)c(=O)n4C)n2C)cc1 [(E)] | 35 | 29 | 31,8% | 29,0% | 0,0% | 56,9% | 54,8% | 12,0% | 80,0% | 76,9% | 23,0% | 34,0% | 33,8% | 0,0% | 54,4% | 49,8% | 10,0% | 78,8% | 79,0% | 32,6% | LD50 (in vivo [2]; ip, I.P.): 1100 mg/kg; LD50 (in vivo [2]; po, OS): 1400 mg/kg; LD50 (in vivo [3]; ip, I.P.): 987 mg/kg; LD50 (in vivo [3]; po, OS): 1340 mg/kg
